Results reported in patent US11524951B2, “2-(2,4,5-substituted-anilino)pyrimidine compounds” (AstraZeneca AB, priority 2011, dated 2022).

Columns and labels:
Type in all cases: cell-based
Wild-type EGFR = target: T1, Wild-type EGFR (Homo sapiens, UniProt P00533); assay: Wild-type EGFR cellular phosphorylation assay; details: LoVo human colon cells; endogenous p-EGFR in cell lysates by ELISA; 2 h with compound, then stimulated 100 ng/ml for 10 minutes; read-out: Assay 3 (IC50)
T1 construct: Assays to measure cellular phosphorylation of endogenous p-EGFR in cell lysates; endogenous in cells; host or cells: LoVo (human colon cell line)
T1 sequence (P00533 25-1210): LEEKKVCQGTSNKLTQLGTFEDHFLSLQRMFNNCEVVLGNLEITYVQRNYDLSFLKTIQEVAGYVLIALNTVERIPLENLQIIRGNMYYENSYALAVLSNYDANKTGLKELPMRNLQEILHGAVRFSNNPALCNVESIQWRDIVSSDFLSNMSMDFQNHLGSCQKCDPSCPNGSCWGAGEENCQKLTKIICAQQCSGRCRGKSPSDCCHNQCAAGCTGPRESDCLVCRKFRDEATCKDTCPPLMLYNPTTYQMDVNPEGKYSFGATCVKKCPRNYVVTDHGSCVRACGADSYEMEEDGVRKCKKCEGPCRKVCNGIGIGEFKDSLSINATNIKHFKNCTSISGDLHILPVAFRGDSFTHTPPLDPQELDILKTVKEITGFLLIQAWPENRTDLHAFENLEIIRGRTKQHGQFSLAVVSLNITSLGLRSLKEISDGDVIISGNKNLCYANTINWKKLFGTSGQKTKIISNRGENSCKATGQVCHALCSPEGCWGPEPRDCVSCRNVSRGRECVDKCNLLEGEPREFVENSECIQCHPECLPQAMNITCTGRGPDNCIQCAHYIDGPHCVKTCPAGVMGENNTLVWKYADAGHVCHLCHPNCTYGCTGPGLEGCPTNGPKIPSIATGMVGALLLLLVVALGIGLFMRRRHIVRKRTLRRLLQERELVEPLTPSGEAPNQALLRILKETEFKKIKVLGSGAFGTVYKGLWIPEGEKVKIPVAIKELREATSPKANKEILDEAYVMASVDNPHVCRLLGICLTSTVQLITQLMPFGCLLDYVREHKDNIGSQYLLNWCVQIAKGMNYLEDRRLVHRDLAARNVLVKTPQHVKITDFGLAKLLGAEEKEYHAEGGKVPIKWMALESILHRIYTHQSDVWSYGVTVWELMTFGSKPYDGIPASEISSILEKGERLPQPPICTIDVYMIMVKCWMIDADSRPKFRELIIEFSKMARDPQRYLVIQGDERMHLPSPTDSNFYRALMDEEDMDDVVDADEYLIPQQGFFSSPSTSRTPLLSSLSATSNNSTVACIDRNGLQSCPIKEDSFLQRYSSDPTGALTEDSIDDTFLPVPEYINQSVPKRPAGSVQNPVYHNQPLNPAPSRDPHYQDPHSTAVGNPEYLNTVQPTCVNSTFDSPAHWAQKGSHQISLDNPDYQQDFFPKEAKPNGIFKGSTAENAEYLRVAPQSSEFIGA
Experimental: Assay 3: Wild-Type EGFR Cellular Phosphorylation Assay
The human colon cell line LoVo were obtained from the American type Culture Collection. […] Cells were grown in a humidified incubator at 37° C. with 5% CO2. Assays to measure cellular phosphorylation of endogenous p-EGFR in cell lysates were carried out according to the protocol described in the R&D Systems DuoSet IC Human Phospho-EGF R ELISA (R&D Systems catalogue number #DYC1095). 40 μL of cells were seeded (15000 cells/well) in growth medium in Corning black, clear-bottomed 384-well plates and incubated at 37° C. with 5% CO2 overnight. […] Plates were incubated for a further 2 h then stimulated with 100 ng/ml for 10 minutes and following aspiration of medium, 40 μL 1× lysis buffer was added to each well. Greiner black high bind 384-well plates were coated with capture antibody and then blocked with 3% BSA. […] Following aspiration and washing of the plates with PBS, 20 μL of detection antibody were added and incubated for 2 hours. […] The data obtained with each compound was exported into a suitable software package (such as Origin) to perform curve fitting analysis.

Exon19 deletion EGFR = target: T2, Exon19 deletion EGFR (Homo sapiens, UniProt P00533, DEL746-750); assay: Exon19 deletion EGFR (activating single mutant) cellular phosphorylation assay; details: PC9 human lung cells (Exon 19 deletion EGFR); endogenous p-EGFR in cell lysates by ELISA; 2 h with compound; read-out: Assay 1 (IC50)
T2 construct: Assays to measure cellular phosphorylation of endogenous p-EGFR in cell lysates; endogenous in cells; host or cells: PC9 (human lung cell line)
T2 sequence (P00533 with tags, fused parts or gaps DEL746-750): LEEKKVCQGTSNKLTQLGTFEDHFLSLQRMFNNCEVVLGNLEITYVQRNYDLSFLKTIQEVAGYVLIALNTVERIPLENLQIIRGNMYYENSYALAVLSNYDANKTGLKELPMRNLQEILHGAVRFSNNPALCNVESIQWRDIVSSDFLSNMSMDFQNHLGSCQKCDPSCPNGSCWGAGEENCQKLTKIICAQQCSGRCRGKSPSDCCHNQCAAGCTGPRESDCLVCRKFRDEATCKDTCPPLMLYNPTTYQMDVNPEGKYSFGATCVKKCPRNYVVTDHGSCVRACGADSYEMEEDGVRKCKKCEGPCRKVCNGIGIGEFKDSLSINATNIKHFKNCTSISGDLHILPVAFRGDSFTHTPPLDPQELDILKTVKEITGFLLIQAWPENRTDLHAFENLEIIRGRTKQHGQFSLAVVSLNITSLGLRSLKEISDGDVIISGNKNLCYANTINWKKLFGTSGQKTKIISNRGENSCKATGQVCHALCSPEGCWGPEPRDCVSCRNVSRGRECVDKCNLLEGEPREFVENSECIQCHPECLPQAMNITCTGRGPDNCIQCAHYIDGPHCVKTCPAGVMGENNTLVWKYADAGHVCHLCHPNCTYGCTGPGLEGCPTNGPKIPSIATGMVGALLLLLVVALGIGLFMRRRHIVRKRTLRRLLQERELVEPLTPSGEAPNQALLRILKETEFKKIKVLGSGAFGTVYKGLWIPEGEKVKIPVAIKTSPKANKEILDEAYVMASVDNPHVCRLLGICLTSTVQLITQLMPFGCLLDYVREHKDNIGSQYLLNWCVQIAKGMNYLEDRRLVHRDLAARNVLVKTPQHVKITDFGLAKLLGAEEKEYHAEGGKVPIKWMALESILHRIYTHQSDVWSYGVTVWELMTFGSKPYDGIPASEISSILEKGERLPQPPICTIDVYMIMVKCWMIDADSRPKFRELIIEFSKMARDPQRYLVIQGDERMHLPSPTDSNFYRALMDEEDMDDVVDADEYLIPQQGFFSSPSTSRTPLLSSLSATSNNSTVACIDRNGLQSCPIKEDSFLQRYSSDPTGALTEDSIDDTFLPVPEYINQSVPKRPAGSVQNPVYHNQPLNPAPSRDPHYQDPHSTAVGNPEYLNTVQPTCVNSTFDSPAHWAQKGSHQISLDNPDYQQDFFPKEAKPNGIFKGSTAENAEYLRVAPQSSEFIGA
Experimental: Assay 1: Exon19 Deletion EGFR (Activating Single Mutant) Cellular Phosphorylation Assay
The human lung cell line PC9 (Exon 19 deletion EGFR) were obtained from the American type Culture Collection. […] Cells were grown in a humidified incubator at 37° C. with 5% CO2. Assays to measure cellular phosphorylation of endogenous p-EGFR in cell lysates were carried out according to the protocol described in the R&D Systems DuoSet IC Human Phospho-EGF R ELISA (R&D Systems catalogue number #DYC1095). 40 μL of cells were seeded (10000 cells/well) in growth medium in Corning black, clear-bottomed 384-well plates and incubated at 37° C. with 5% CO2 overnight. […] Plates were incubated for a further 2 h, then following aspiration of medium, 40 μL 1× lysis buffer was added to each well. Greiner black high bind 384-well plates were coated with capture antibody and then blocked with 3% BSA. Following removal of block, […], of lysate were transferred to the Greiner black high bind 384-well plates and incubated for 2 hours. Following aspiration and washing of the plates with PBS, 20 μL of detection antibody were added and incubated for 2 hours. […] The data obtained with each compound was exported into a suitable software package (such as Origin) to perform curve fitting analysis.

L858R/T790M EGFR = target: T3, L858R/T790M EGFR (Homo sapiens, UniProt P00533, L858R/T790M); assay: L858R/T790M EGFR (double mutant) cellular phosphorylation assay; details: NCI-H1975 human lung cells; endogenous p-EGFR in cell lysates by ELISA; 2 h with compound
T3 construct: Assays to measure cellular phosphorylation of endogenous p-EGFR in cell lysates; endogenous in cells; host or cells: NCI-H1975 (human lung cell line)
T3 sequence (P00533 25-1210 T790M/L858R): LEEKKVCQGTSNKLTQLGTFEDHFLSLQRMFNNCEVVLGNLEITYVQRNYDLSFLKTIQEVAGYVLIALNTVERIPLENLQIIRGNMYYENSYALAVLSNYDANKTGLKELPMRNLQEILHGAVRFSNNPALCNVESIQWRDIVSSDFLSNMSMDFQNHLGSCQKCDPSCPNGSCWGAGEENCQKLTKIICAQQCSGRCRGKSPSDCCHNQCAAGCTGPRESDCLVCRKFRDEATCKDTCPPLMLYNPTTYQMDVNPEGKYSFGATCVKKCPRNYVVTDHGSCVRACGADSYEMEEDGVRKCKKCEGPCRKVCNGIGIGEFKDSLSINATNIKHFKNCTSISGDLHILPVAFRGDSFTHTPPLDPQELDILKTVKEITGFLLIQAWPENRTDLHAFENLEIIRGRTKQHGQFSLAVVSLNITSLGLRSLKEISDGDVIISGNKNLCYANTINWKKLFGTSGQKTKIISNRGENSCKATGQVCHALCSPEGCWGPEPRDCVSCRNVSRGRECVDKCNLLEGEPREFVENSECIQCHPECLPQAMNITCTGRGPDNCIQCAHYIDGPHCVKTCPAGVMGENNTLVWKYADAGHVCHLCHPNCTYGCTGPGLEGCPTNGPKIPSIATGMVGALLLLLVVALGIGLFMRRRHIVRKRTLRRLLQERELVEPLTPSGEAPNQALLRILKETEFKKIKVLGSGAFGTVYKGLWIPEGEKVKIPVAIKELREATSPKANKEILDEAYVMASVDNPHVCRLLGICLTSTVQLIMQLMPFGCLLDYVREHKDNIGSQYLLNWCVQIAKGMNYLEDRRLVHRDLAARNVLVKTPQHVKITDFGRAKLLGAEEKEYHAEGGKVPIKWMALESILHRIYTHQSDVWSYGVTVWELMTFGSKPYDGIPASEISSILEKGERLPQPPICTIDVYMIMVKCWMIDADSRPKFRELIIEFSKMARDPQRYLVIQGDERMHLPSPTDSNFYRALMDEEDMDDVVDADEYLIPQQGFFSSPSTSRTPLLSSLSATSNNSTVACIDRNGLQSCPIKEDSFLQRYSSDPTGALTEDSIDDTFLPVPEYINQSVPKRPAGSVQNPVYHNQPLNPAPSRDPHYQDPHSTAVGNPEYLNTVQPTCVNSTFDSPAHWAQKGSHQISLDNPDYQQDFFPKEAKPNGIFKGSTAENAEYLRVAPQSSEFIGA
Experimental: Assay 2: L858R/T790M EGFR (Double Mutant) Cellular Phosphorylation Assay
The human lung cell lines NCI-H1975 were obtained from the American type Culture Collection. […] Cells were grown in a humidified incubator at 37° C. with 5% CO2.
Assays to measure cellular phosphorylation of endogenous p-EGFR in cell lysates were carried out according to the protocol described in the R&D Systems DuoSet IC Human Phospho-EGF R ELISA (R&D Systems catalogue number #DYC1095).
40 μL of cells were seeded (10000 cells/well) in growth medium in Corning black, clear-bottomed 384-well plates and incubated at 37° C. with 5% CO2 overnight. […] Plates were incubated for a further 2 h and following aspiration of medium, 40 μL 1× lysis buffer was added to each well. Greiner black high bind 384-well plates were coated with capture antibody and then blocked with 3% BSA. Following removal of block, 15 μL of lysate were transferred to the Greiner black high bind 384-well plates and incubated for 2 hours. Following aspiration and washing of the plates with PBS, 20 μL of detection antibody were added and incubated for 2 hours. […] 20 μL QuantaBlu stop solution were added to plates and fluorescence read on an Envision plate reader using
The data obtained with each compound was exported into a suitable software package (such as Origin) to perform curve fitting analysis.

SMILES | IC50 (Wild-type EGFR) | IC50 (Exon19 deletion EGFR) | IC50 (L858R/T790M EGFR)
C=CC(=O)Nc1cc(Nc2ncc(Cl)c(-c3cn(C)c4ccccc34)n2)c(OC)cc1N1CC[C@@H](N(C)C)C1 [Example 21, N-(5-{[5-Chloro-4-(1-methylindol-3-yl)pyrimidin-2-yl]amino}-2-{(3R)-3-dimethylaminopyrrolidin-1-yl}-4-methoxyphenyl)prop-2-enamide] | 0.128 µM | 0.00295 µM | 0.00234 µM
C=CC(=O)Nc1cc(Nc2ncc(C#N)c(-c3cn(C)c4ccccc34)n2)c(OC)cc1N1CC[C@@H](N(C)C)C1 [Example 22, N-(5-{[5-Cyano-4-(1-methylindol-3-yl)pyrimidin-2-yl]amino}-2-{(3R)-3-dimethylaminopyrrolidin-1-yl}-4-methoxyphenyl)prop-2-enamide] | 0.0734 µM | 0.00214 µM | 0.00152 µM
C=CC(=O)Nc1cc(Nc2ncc(C#N)c(-c3cn(C)c4ccccc34)n2)c(OC)cc1N1CCN(C)CC1 [Example 23, N-(5-{[5-Cyano-4-(1-methylindol-3-yl)pyrimidin-2-yl]amino}-4-methoxy-2-{4-methylpiperazin-1-yl}phenyl)prop-2-enamide] | 3.02 µM | 0.0169 µM | 0.0176 µM
C=CC(=O)Nc1cc(Nc2ncc(Cl)c(-c3c[nH]c4ccccc34)n2)c(OC)cc1N1CC[C@@H](N(C)C)C1 [Example 24, N-(5-{[5-Chloro-4-(1H-indol-3-yl)pyrimidin-2-yl]amino}-2-{(3R)-3-dimethylaminopyrrolidin-1-yl}-4-methoxyphenyl)prop-2-enamide] | 0.0357 µM | 0.00133 µM | 0.000886 µM
C=CC(=O)Nc1cc(Nc2ncc(Cl)c(-c3c[nH]c4ccccc34)n2)c(OC)cc1N(C)CCN(C)C [Example 25, N-(5-{[5-Chloro-4-(1H-indol-3-yl)pyrimidin-2-yl]amino}-2-{2-dimethyl-aminoethyl-methylamino}-4-methoxyphenyl)prop-2-enamide] | 0.0109 µM | 0.000581 µM | 0.000238 µM
C=CC(=O)Nc1cc(Nc2ncc(Cl)c(-c3cn(C)c4ccccc34)n2)c(OC)cc1N(C)CCN(C)C [Example 26, N-(5-{[5-Chloro-4-(1-methylindol-3-yl)pyrimidin-2-yl]amino}-2-{2-dimethylaminoethyl-methylamino}-4-methoxyphenyl)prop-2-enamide] | 0.0583 µM | 0.00229 µM | 0.00193 µM
C=CC(=O)Nc1cc(Nc2ncc(C#N)c(-c3c[nH]c4ccccc34)n2)c(OC)cc1N1CCN(C)CC1 [Example 27, N-(5-{[5-Cyano-4-(1H-indol-3-yl)pyrimidin-2-yl]amino}-4-methoxy-2-{4-methylpiperazin-1-yl}phenyl)prop-2-enamide] | 0.318 µM | 0.00561 µM | 0.0114 µM
C=CC(=O)Nc1cc(Nc2ncc(C#N)c(-c3cn(C)c4ccccc34)n2)c(OC)cc1N(C)CCN(C)C [Example 29, N-(5-{[5-Cyano-4-(1-methylindol-3-yl)pyrimidin-2-yl]amino}-2-{2-dimethylaminoethyl-methylamino}-4-methoxyphenyl)prop-2-enamide] | 0.0465 µM | 0.00123 µM | 0.000885 µM
C=CC(=O)Nc1cc(Nc2ncc(Cl)c(-c3cnn4ccccc34)n2)c(OC)cc1N(C)CCN1CCOCC1 [Example 31, N-{5-[(5-Chloro-4-pyrazolo[1,5-a]pyridin-3-ylpyrimidin-2-yl)amino]-4-methoxy-2-[methyl-(2-morpholin-4-ylethyl)amino]phenyl}prop-2-enamide] | 2.51 µM | 0.0375 µM | 0.00734 µM
C=CC(=O)Nc1cc(Nc2ncc(Cl)c(-c3cnn4ccccc34)n2)c(OC)cc1N(C)CCN1CCN(C)CC1 [Example 32, N-(5-{[5-Chloro-4-pyrazolo[1,5-a]pyridin-3-ylpyrimidin-2-yl]amino}-4-methoxy-2-{methyl-[2-(4-methylpiperazin-1-yl)ethyl]amino}phenyl)prop-2-enamide] | 10.5 µM | 0.138 µM | 0.0238 µM
C=CC(=O)Nc1cc(Nc2ncc(Cl)c(-c3cn(C)c4ccccc34)n2)c(OC)cc1N1CC(N(C)C)C1 [Example 34, N-(5-{[5-Chloro-4-(1-methylindol-3-yl)pyrimidin-2-yl]amino}-2-{3-dimethylaminoazetidin-1-yl}-4-methoxyphenyl)prop-2-enamide] | 0.153 µM | 0.00904 µM | 0.00377 µM
C=CC(=O)Nc1cc(Nc2ncc(C)c(-c3cn(C)c4ccccc34)n2)c(OC)cc1N1CC(N(C)C)C1 [Example 35, N-(2-{3-Dimethylaminoazetidin-1-yl}-4-methoxy-5-{[5-methyl-4-(1-methylindol-3-yl)pyrimidin-2-yl]amino}phenyl)prop-2-enamide] | 0.262 µM | 0.00857 µM | 0.00677 µM
C=CC(=O)Nc1cc(Nc2nccc(-c3cn(C)c4ccccc34)n2)c(OC)cc1N1CC(N(C)C)C1 [Example 36, N-(2-{3-Dimethylaminoazetidin-1-yl}-4-methoxy-5-{[4-(1-methylindol-3-yl)pyrimidin-2-yl]amino}phenyl)prop-2-enamide] | 1.05 µM | 0.0433 µM | 0.0327 µM
C=CC(=O)Nc1cc(Nc2ncc(Cl)c(-c3c[nH]c4ccccc34)n2)c(OC)cc1N1CC(N(C)C)C1 [Example 37, N-(5-{[5-Chloro-4-(1H-indol-3-yl)pyrimidin-2-yl]amino}-2-{3-dimethylaminoazetidin-1-yl}-4-methoxyphenyl)prop-2-enamide] | 0.0486 µM | 0.00211 µM | 0.00181 µM
C=CC(=O)Nc1cc(Nc2ncc(C#N)c(-c3cnn4ccccc34)n2)c(OC)cc1N1CC[C@@H](N(C)C)C1 [Example 38, N-{5-[(5-Cyano-4-pyrazolo[1,5-a]pyridin-3-ylpyrimidin-2-yl)amino]-2-[(3R)-3-dimethylaminopyrrolidin-1-yl]-4-methoxyphenyl}prop-2-enamide] | 0.538 µM | 0.00509 µM | 0.00441 µM
C=CC(=O)Nc1cc(Nc2ncc(C#N)c(-c3cnn4ccccc34)n2)c(OC)cc1N(C)CCN(C)C [Example 39, N-{5-[(5-Cyano-4-pyrazolo[1,5-a]pyridin-3-ylpyrimidin-2-yl)amino]-2-[2-dimethylaminoethyl-methylamino]-4-methoxyphenyl}prop-2-enamide] | 0.248 µM | 0.00234 µM | 0.00101 µM
C=CC(=O)Nc1cc(Nc2ncc(C#N)c(-c3cnn4ccccc34)n2)c(OC)cc1N1CC(N(C)C)C1 [Example 40, N-{5-[(5-Cyano-4-pyrazolo[1,5-a]pyridin-3-ylpyrimidin-2-yl)amino]-2-[3-dimethylaminoazetidin-1-yl]-4-methoxyphenyl}prop-2-enamide] | > 30 µM | 0.0124 µM | 0.0148 µM
C=CC(=O)Nc1cc(Nc2nccc(-c3cn(C)c4ccccc34)n2)c(OC)cc1N1CC[C@@H]2CN(C)C[C@@H]21 [Example 41, N-(2-{(3aR,6aR)-5-Methyl-2,3,3a,4,6,6a-hexahydropyrrolo[3,4-b]pyrrol-1-yl}-4-methoxy-5-{[4-(1-methylindol-3-yl)pyrimidin-2-yl]amino}phenyl)prop-2-enamide] | 1.84 µM | 0.0286 µM | 0.0295 µM
